Assay results published in US9399631B2, “Polyphenol proteasome inhibitors, synthesis, and methods of use” (UNIVERSITY OF SOUTH FLORIDA, priority 2003, dated 2016).

How the values were obtained:
[1] = tested on: prokaryotic 20S proteasome; experiment: Dialysis assay for irreversible inhibition, prokaryotic 20S proteasome; assay type: biochemical, Methanosarcina thermophile
Experimental: Materials. Highly purified tea polyphenols (−)-EGCG (>95%), (−)-GCG (>98%), (−)-ECG (>98%), (−)-CG (>98%), fetal calf serum, propidium iodide, 3-[4,5-dimethylthiazol-2-yl]-2,5-diphenyltetrazolium bromide (MTT), RNase A, and DMSO were purchased from Sigma (St. Louis, Mo.). (+)-EGCG, benzyl-protected-(+)-EGCG, (+)-GCG, (−)-EGCG-amide, and (+)-EGCG-amide were prepared by enantioselective synthesis (see below). Purified 20S eukaryotic proteasome from rabbit was purchased from BOSTON BIOCHEM (Cambridge, Mass.). Purified 20S prokaryotic proteasome (Methanosarcina thermophile, Recombinant, E. coli) was purchased from CALBIOCHEM (La Jolla, Calif.). Fluorogenic peptide substrates Suc-Leu-Leu-Val-Tyr-AMC (for the proteasomal chymotrypsin-like activity) was obtained from Calbiochem (La Jolla, Calif.). RPMI 1640 medium, Dulbecco's modified Eagle's medium, MEM non-essential amino acids solution, MEM-sodium pyruvate solution, penicillin, and streptomycin were from INVITROGEN (Carlsbad, Calif.). Monoclonal antibody to p27^Kip was purchased from PHARMINGEN (San Diego, Calif.); polyclonal antibodies to IκB-α, Bax and actin, and monoclonal antibody to ubiquitin were from SANTA CRUZ Biotechnology Inc. (Santa Cruz, Calif.).
Assays for irreversible inhibition. To measure the effect of dialysis on (−)-EGCG-mediated proteasome inhibition, 20S prokaryotic proteasome (2 μg) was incubated with 10 μM (−)-EGCG or the control solvent (H2O) in 50 mM Tris-HCl, pH 7.5 for 1 hour. This was then incubated at 4° C. either without or with dialysis overnight using a 10,000 MWCO Pierce Slide-A-Lyzer Dialysis Cassette (Rockford, Ill.) in a rotating bath of 50 mM Tris-HCl, pH 7.5. The proteasomal chymotrypsin-like activity was then assayed as previously described. As a control, an EGCG solution (without purified 20S proteasome) was dialyzed overnight, followed by measurement of the effects on inhibition of the proteasome activity.
To investigate the nature of (−)-EGCG-mediated proteasome inhibition, a dialysis experiment was performed. […]

purified 20S proteasome = conditions: natural (−)-EGCG; cited from earlier work

O=C(O[C@@H]1Cc2c(O)cc(O)cc2O[C@@H]1c1cc(O)c(O)c(O)c1)c1cc(O)c(O)c(O)c1 [(−)-EGCG, (−)-epigallocatechin-3-gallate, reference compound]
inhibition of chymotrypsin-like activity ([1]; 10 μM, 1 h pre-incubation, overnight dialysis): 81%
inhibition of chymotrypsin-like activity ([1]; 10 μM, absence of dialysis): 85%
inhibition of chymotrypsin-like activity ([1]; compound dialyzed overnight before addition to proteasome (EGCG pre)): no inhibition was observed
IC50 (purified 20S proteasome): 100 to 200 nM
